Test results from ChEMBL document CHEMBL4819127, “Syntheses and antimicrobial activities of ogipeptin derivatives” (Bioorg Med Chem Lett, 2021).
Converted amounts (≈) assume the structure as drawn. The source made the active and inactive calls. The calls are words filed in the database; no cut-off is given here.

Tests used:
[1] = system: Escherichia coli; experiment: Antibacterial activity against Escherichia coli ATCC 47076 assessed as bacterial growth inhibition; format: functional
[2] = system: Klebsiella pneumoniae; experiment: Antibacterial activity against Klebsiella pneumoniae ATCC 10031 assessed as bacterial growth inhibition; format: functional
[3] = system: Acinetobacter baumannii; experiment: Antibacterial activity against Acinetobacter baumannii ATCC 19606 assessed as bacterial growth inhibition; format: functional; details: ATCC 19606 = CIP 70.34 = JCM 6841
[4] = system: Pseudomonas aeruginosa; experiment: Antibacterial activity against Pseudomonas aeruginosa ATCC 27853 assessed as bacterial growth inhibition; format: functional
[5] = system: Klebsiella pneumoniae; experiment: Antibacterial activity against Klebsiella pneumoniae ATCC 700721 assessed as bacterial growth inhibition; format: functional
[6] = system: Klebsiella pneumoniae; experiment: Antibacterial activity against Klebsiella pneumoniae JCM 1662 assessed as bacterial growth inhibition; format: functional
[7] = system: Pseudomonas aeruginosa; experiment: Antibacterial activity against Pseudomonas aeruginosa ATCC 15692 assessed as bacterial growth inhibition; format: functional
[8] = system: Klebsiella pneumoniae; experiment: Antibacterial activity against Klebsiella pneumoniae IHMA 1387833 assessed as bacterial growth inhibition; format: functional
[9] = system: Acinetobacter baumannii; experiment: Antibacterial activity against Acinetobacter baumannii IHMA 1312713 assessed as bacterial growth inhibition; format: functional
[10] = system: Pseudomonas aeruginosa; experiment: Antibacterial activity against Pseudomonas aeruginosa IHMA 1375891 assessed as bacterial growth inhibition; format: functional
[11] = (§1) Cytotoxicity against HEK293 cells; format: cell-based; details: human, HEK293 cells
[12] = system: HepG2; experiment: Cytotoxicity against human HepG2 cells; format: functional
[13] = Lipophilicity, logD of compound; format: physicochemical; details: octanol/water
[14] = system: Pseudomonas aeruginosa; experiment: Antibacterial activity against multidrug resistance Pseudomonas aeruginosa; format: functional, organism-based
[15] = system: Escherichia coli; experiment: Antibacterial activity against Escherichia coli; format: functional, organism-based
[16] = system: Acinetobacter; experiment: Antibacterial activity against Acinetobacter sp.; format: functional, organism-based
[17] = system: Klebsiella pneumoniae; experiment: Antibacterial activity against Klebsiella pneumoniae; format: functional, organism-based
[18] = system: HEK293; experiment: as §1; format: cell-based; details: human, hek293

Compound | MIC [1] [µg/mL] | MIC [2] [µg/mL] | MIC [3] [µg/mL] | MIC [4] [µg/mL] | MIC [5] [µg/mL] | MIC [6] [µg/mL] | MIC [7] [µg/mL] | MIC [8] [µg/mL] | MIC [9] [µg/mL] | MIC [10] [µg/mL] | CC50 [11] [µM] | CC50 [12] [µM] | logD [13] | Activity [14] | Activity [15] | Activity [16] | Activity [17] | CC50 [18] [µM]
C/C=C1\NC(=O)C(NC(=O)c2cc3cc(Cl)ccc3o2)C(O)CNC(=O)C(C(O)CN)NC(=O)C(C(O)CN)NC(=O)[C@H](CCCNC(=N)N)NC(=O)[C@H](CC(C)C)NC(=O)[C@H](CCN)NC1=O (stereo not given in full) | 2 (≈ 2.04 µM) | 2 (≈ 2.04 µM) | 2 (≈ 2.04 µM) | 4 (≈ 4.08 µM) | 8 (≈ 8.17 µM) | > 256 | > 256 | > 256 | 256 (≈ 261 µM) | > 256 | > 64 | > 64 | 2.829 | – | – | – | – | –
C/C=C1\NC(=O)C(NC(=O)c2ccc(Oc3ccccc3CCCC)cc2)C(O)CNC(=O)C(C(O)CN)NC(=O)C(C(O)CN)NC(=O)[C@H](CCCNC(=N)N)NC(=O)[C@H](CC(C)C)NC(=O)[C@H](CCN)NC1=O (stereo not given in full) | 2 (≈ 1.9 µM) | 4 (≈ 3.8 µM) | 2 (≈ 1.9 µM) | 4 (≈ 3.8 µM) | 4 (≈ 3.8 µM) | 4 (≈ 3.8 µM) | 64 (≈ 60.8 µM) | > 256 | 8 (≈ 7.6 µM) | 64 (≈ 60.8 µM) | > 64 | > 64 | 4.984 | – | – | – | – | –
C/C=C1\NC(=O)C(NC(=O)CCCCCCCCCCC)C(O)CNC(=O)C(C(O)CN)NC(=O)C(C(O)CN)NC(=O)[C@H](CCCNC(=N)N)NC[C@H](CC(C)C)NC(=O)[C@H](CCN)NC1=O (stereo not given in full) | – | – | – | – | – | – | – | – | – | – | – | – | – | Active | Active | inactive | inactive | –
C/C=C1\NC(=O)C(NC(=O)COc2ccc(/C=C/C(=O)OC(C)(C)C)cc2)C(O)CNC(=O)C(C(O)CN)NC(=O)C(C(O)CN)NC(=O)[C@H](CCCNC(=N)N)NC(=O)[C@H](CC(C)C)NC(=O)[C@H](CCN)NC1=O (stereo not given in full) | 2 (≈ 1.88 µM) | 2 (≈ 1.88 µM) | 2 (≈ 1.88 µM) | 4 (≈ 3.77 µM) | 2 (≈ 1.88 µM) | > 256 | 8 (≈ 7.54 µM) | > 256 | 128 (≈ 121 µM) | 128 (≈ 121 µM) | > 64 | > 64 | 2.65 | – | – | – | – | –
COLISTIN | – | – | – | – | – | – | – | – | – | – | – | – | – | – | – | – | – | > 64
C/C=C1\NC(=O)C(NC(=O)c2cn3c4c(c(F)c(F)cc4c2=O)OC[C@@H]3C)C(O)CNC(=O)C(C(O)CN)NC(=O)C(C(O)CN)NC(=O)[C@H](CCCNC(=N)N)NC(=O)[C@H](CC(C)C)NC(=O)[C@H](CCN)NC1=O (stereo not given in full) | 32 (≈ 30.1 µM) | > 64 | > 64 | 16 (≈ 15 µM) | 64 (≈ 60.1 µM) | > 64 | > 64 | > 64 | > 64 | > 64 | > 64 | > 64 | – | – | – | – | – | –
C/C=C1\NC(=O)C(NC(=O)CCc2nc(-c3ccncc3)no2)C(O)CNC(=O)C(C(O)CN)NC(=O)C(C(O)CN)NC(=O)[C@H](CCCNC(=N)N)NC(=O)[C@H](CC(C)C)NC(=O)[C@H](CCN)NC1=O (stereo not given in full) | 2 (≈ 2 µM) | 8 (≈ 7.98 µM) | 256 (≈ 255 µM) | > 256 | 32 (≈ 31.9 µM) | > 256 | > 256 | > 256 | > 256 | > 256 | > 64 | > 64 | – | – | – | – | – | –
C/C=C1\NC(=O)C(NC(=O)C2CC3(CCN(C(=O)OC(C)(C)C)CC3)c3ccccc32)C(O)CNC(=O)C(C(O)CN)NC(=O)C(C(O)CN)NC(=O)[C@H](CCCNC(=N)N)NC(=O)[C@H](CC(C)C)NC(=O)[C@H](CCN)NC1=O (stereo not given in full) | 4 (≈ 3.59 µM) | 4 (≈ 3.59 µM) | 256 (≈ 230 µM) | 16 (≈ 14.4 µM) | > 256 | > 256 | > 256 | > 256 | > 256 | > 256 | > 64 | > 64 | – | – | – | – | – | –
C/C=C1\NC(=O)C(NC(=O)CCCCC/C=C\CCCCCC)C(O)CNC(=O)C(C(O)CN)NC(=O)C(C(O)CN)NC(=O)[C@H](CCCNC(=N)N)NC[C@H](CC(C)C)NC(=O)[C@H](CCN)NC1=O (stereo not given in full) | – | – | – | – | – | – | – | – | – | – | – | – | – | Active | Active | inactive | inactive | –
C/C=C1\NC(=O)C(NC(=O)c2cn3c4c(c(N5CCN(C)CC5)c(F)cc4c2=O)OC[C@@H]3C)C(O)CNC(=O)C(C(O)CN)NC(=O)C(C(O)CN)NC(=O)[C@H](CCCNC(=N)N)NC(=O)[C@H](CC(C)C)NC(=O)[C@H](CCN)NC1=O (stereo not given in full) | 128 (≈ 112 µM) | 64 (≈ 55.9 µM) | > 128 | 32 (≈ 28 µM) | > 256 | > 128 | > 128 | > 256 | > 128 | > 128 | > 64 | > 64 | – | – | – | – | – | –
C/C=C1\NC(=O)C(NC(=O)c2ccc(NS(=O)(=O)Cc3ccccc3)cc2)C(O)CNC(=O)C(C(O)CN)NC(=O)C(C(O)CN)NC(=O)[C@H](CCCNC(=N)N)NC(=O)[C@H](CC(C)C)NC(=O)[C@H](CCN)NC1=O (stereo not given in full) | 16 (≈ 14.9 µM) | 128 (≈ 119 µM) | > 256 | 256 (≈ 238 µM) | > 256 | > 256 | > 256 | > 256 | > 256 | > 256 | > 64 | > 64 | – | – | – | – | – | –
C/C=C1\NC(=O)C(NC(=O)c2ccc(-c3nnn(CC(=O)N(C)C)n3)cc2)C(O)CNC(=O)C(C(O)CN)NC(=O)C(C(O)CN)NC(=O)[C@H](CCCNC(=N)N)NC(=O)[C@H](CC(C)C)NC(=O)[C@H](CCN)NC1=O (stereo not given in full) | 16 (≈ 15.1 µM) | 256 (≈ 242 µM) | > 256 | 128 (≈ 121 µM) | > 256 | > 256 | > 256 | > 256 | > 256 | > 256 | > 64 | > 64 | – | – | – | – | – | –
C/C=C1\NC(=O)C(NC(=O)CCC/C=C\CCCCCC)C(O)CNC(=O)C(C(O)CN)NC(=O)C(C(O)CN)NC(=O)[C@H](CCCNC(=N)N)NC[C@H](CC(C)C)NC(=O)[C@H](CCN)NC1=O (stereo not given in full) | – | – | – | – | – | – | – | – | – | – | – | – | – | Active | Active | inactive | inactive | –
C/C=C1\NC(=O)C(NC(=O)CCCCCCCCC)C(O)CNC(=O)C(C(O)CN)NC(=O)C(C(O)CN)NC(=O)[C@H](CCCNC(=N)N)NC[C@H](CC(C)C)NC(=O)[C@H](CCN)NC1=O (stereo not given in full) | – | – | – | – | – | – | – | – | – | – | – | – | – | Active | Active | inactive | inactive | –
C/C=C1\NC(=O)C(NC(=O)CCc2nnc(-c3ccc(OC)cc3)[nH]2)C(O)CNC(=O)C(C(O)CN)NC(=O)C(C(O)CN)NC(=O)[C@H](CCCNC(=N)N)NC(=O)[C@H](CC(C)C)NC(=O)[C@H](CCN)NC1=O (stereo not given in full) | 2 (≈ 1.94 µM) | 8 (≈ 7.77 µM) | > 256 | 8 (≈ 7.77 µM) | 16 (≈ 15.5 µM) | > 256 | > 256 | > 256 | > 256 | > 256 | > 64 | > 64 | – | – | – | – | – | –
C/C=C1\NC(=O)C(NC(=O)CCCCCCCCC)C(O)CNC(=O)C(C(O)CN)NC(=O)C(C(O)CN)NC(=O)[C@H](CCCNC(=N)N)NC(=O)[C@H](CC(C)C)NC(=O)[C@H](CCN)NC1=O (stereo not given in full) | 2 (≈ 2.09 µM) | 1 (≈ 1.05 µM) | 2 (≈ 2.09 µM) | 4 (≈ 4.19 µM) | > 256 | > 256 | 64 (≈ 67 µM) | > 256 | > 256 | 128 (≈ 134 µM) | > 64 | > 64 | 3.756 | – | – | – | – | –
C/C=C1\NC(=O)C(NC(=O)CCc2nc(-c3ccc(OC)cc3)no2)C(O)CNC(=O)C(C(O)CN)NC(=O)C(C(O)CN)NC(=O)[C@H](CCCNC(=N)N)NC(=O)[C@H](CC(C)C)NC(=O)[C@H](CCN)NC1=O (stereo not given in full) | 2 (≈ 1.94 µM) | 2 (≈ 1.94 µM) | 8 (≈ 7.76 µM) | 8 (≈ 7.76 µM) | 2 (≈ 1.94 µM) | > 256 | > 256 | > 256 | > 256 | > 256 | > 64 | > 64 | – | – | – | – | – | –
